# Laboratory results: US20250206773A1, “FORMS AND COMPOSITIONS OF SODIUM CHENODEOXYCHOLATE” (Syntis Bio, Inc., priority 2022, published 2025)
# Like-named read-outs stand apart in the source and are kept apart here.
# What was measured:
# [1] = type: physicochemical
# Description: HPLC analysis was carried out on an Agilent 1260 Infinity chromatograph, using a Hichrom C18 column 100×4.6 mm, 3.5 m, at 40° C. Method details were as follows:
# Around 10 mg of NaCDC Form B was weighed into clear HPLC vials and the selected solvents (500 μL) were added to the vials. Experiments ST07, 09, 11, 13, 15, 17, 19 and 21 were kept stirring for 24 h at 30° C. and 60° C., while samples were taken after 4 h and 24 h for HPLC analysis. Subsequently, the same experiments were evaporated at 30° C. for 24 h under reduced pressure (21-22 mbar), and the solids were evaluated by HPLC and XRPD. Separately, the solutions and slurries from experiments ST10, 12, 14, 16, 18, 20 and 22 were stirred for 24 h at 30° C. and 60° C. (no samples were taken) and evaporated at 60° C. for 24 h under reduced pressure (20-21 mbar). The recovered materials were sampled for HPLC and XRPD analyses.
# [2] = Exposure to moist air (RH 95%, room temperature), XRPD before/after; type: physicochemical
# Description: FIG. 4 is a series of XRPD patterns, showing NaCDC Form A before (thick line) and after (thin line) 15 hours of exposure to RH 95% at room temperature. FIG. 8 is a series of XRPD patterns, showing NaCDC Form B before (thick line) and after (thin line) 15 hours of exposure to RH 95% at room temperature.
# [3] = Intrinsic dissolution, USP rotating disk apparatus; type: physicochemical
# Description: For the intrinsic dissolution studies, the following HPLC method was used: [table] Intrinsic dissolution profiles of NaCDC Form A and Form B were determined from a drug disk of constant surface area using a USP rotating disk apparatus in phosphate buffer (pH 7.4) at 37° C. […] A typical apparatus consisted of a punch and a die, whose base is attached to a surface plate. […] The punch was then inserted in the die cavity and the test material was compressed with a hydraulic press. A non-disintegrating compact of the material was formed in the die cavity with a single face of defined area exposed on the bottom of the die. The die assembly was then attached to a shaft with a holder and the surface plate was removed. The shaft holding the die assembly was positioned into the dissolution medium at a distance not less than 1.0 cm from the bottom of the vessel. In this procedure, fluid flow was generated by the rotation of the die. The amount of material dissolved was measured as a function of time. In particular, the cumulative amount dissolved at each time point was corrected for losses due to sampling. […] Method parameters are summarized below: [table]
# [4] = Polymorph screening: slow evaporation; type: physicochemical
# Description: Five stock solutions (with MeOH, water, 2,2,2-trifluoroethanol, MeOH:EtOAc (1:1 v/v) and MeOH:acetone (1:1 v/v)) were prepared with NaCDC Form B at RT. The final concentration of each solution was near that obtained from the Solubility Studies described in Example 8. Around 19-23 mg of NaCDC Form B was weighed into 1.6 mL HPLC vials (or 8 mL flask in the case of stock solutions with MeOH:EtOAc and MeOH:acetone) and dissolved in appropriate solvents at RT. In the case of the stock solution with water, around 40 mg NaCDC Form B was used. The experiments were kept at RT for 1 h with stirring (500 rpm) and then the solutions were filtered with 0.45 μm PTFE filters. During filtration of the stock solution with water, a foaming phenomenon was observed, and therefore, filtration was performed slowly and in several steps. The filtered solutions were then evaporated slowly under atmospheric pressure at 25° C. (experiments EV01-05) or at 50° C. (experiments EV06-09). After complete evaporation of the solvent, the solids were recovered and analyzed by XRPD. Depending on the results obtained from the XRPD analysis and also material availability, some experiments were analyzed by HPLC and TG/DSC.
# [5] = Dynamic vapor sorption (DVS) hygroscopicity; type: physicochemical; settings: 25° C.
# Description: DVS measurements were performed with a SMS—DVS Intrinsic. The sample size was about 50 mg, accurately weighed. The measurement was performed at 25° C., the relative humidity (RH) range investigated was 40-90-0-90% RH with 10% RH steps. After each RH change, the mass of the sample was allowed to stabilize (waiting time 10 to 60 minutes, stabilization criterion ≤0.002 g for 10 minutes). The hygroscopicity of the sample was calculated as follows: [formula] • where: • W1: weight of sample at the start of the experiment (25° C. and 40% RH) • W2: weight of sample at 25° C. and 80% RH in the first sorption cycle High Pressure Liquid Chromatography (HPLC)
# [6] = ST13: Methanol, solution, 60° C.
# [7] = ST17: n-Heptane, slurry, 60° C.
# [8] = EV07, 2,2,2-Trifluoroethanol (TFE) 50.88 mg/mL, solids after 4 days at 50° C. and atm. pres.
smiles,measurement,setting,value
"C[C@H](CCC(=O)[O-])[C@H]1CC[C@H]2[C@@H]3[C@H](O)C[C@@H]4C[C@H](O)CC[C@]4(C)[C@H]3CC[C@]12C.[Na+] [Form B, sodium chenodeoxycholate]",HPLC purities throughout the stability tests,[1],≥ 86.1%
same,form stability in slurry experiments (XRPD),[1],stable
same,stability in solution and/or slurry,[1],remained stable
same,HPLC (%) at 212 nm (after evap.),"[1]; ST07: Water solution RT 24 h, evaporated at 30° C. 24 h",97.8%
same,XRPD (after evap.),"[1]; ST07: Water solution RT, evaporated at 30° C.",Am.
same,HPLC (%) at 212 nm (before evap.) 4 h,"[1]; ST07: Water, solution, RT",100.0%
same,HPLC (%) at 212 nm (before evap.) 24 h,"[1]; ST07: Water, solution, RT",96.2%
same,HPLC (%) at 212 nm (after evap.),"[1]; ST08: Water solution RT 24 h, evaporated at 60° C. 24 h, listed as NaCDC Form B",84.6%
same,HPLC (%) at 212 nm (after evap.),"[1]; ST08: Water solution RT 24 h, evaporated at 60° C. 24 h, listed as starting material",around 84.5%
same,XRPD (after evap.),"[1]; ST08: Water solution RT, evaporated at 60° C.",Am.
same,HPLC (%) at 212 nm (after evap.),"[1]; ST09: Water solution 60° C. 24 h, evaporated at 30° C. 24 h",95.7%
same,XRPD (after evap.),"[1]; ST09: Water solution 60° C., evaporated at 30° C.",Am.
same,HPLC (%) at 212 nm (before evap.) 4 h,"[1]; ST09: Water, solution, 60° C.",100.0%
same,HPLC (%) at 212 nm (before evap.) 24 h,"[1]; ST09: Water, solution, 60° C.",96.6%
same,HPLC (%) at 212 nm (after evap.),"[1]; ST10: Water solution 60° C. 24 h, evaporated at 60° C. 24 h",90.0%
same,XRPD (after evap.),"[1]; ST10: Water solution 60° C., evaporated at 60° C.",Am.
same,HPLC (%) at 212 nm (after evap.),"[1]; ST11: Methanol solution RT 24 h, evaporated at 30° C. 24 h",87.1%
same,XRPD (after evap.),"[1]; ST11: Methanol solution RT, evaporated at 30° C.",Am.
same,HPLC (%) at 212 nm (before evap.) 4 h,"[1]; ST11: Methanol, solution, RT",91.4%
same,HPLC (%) at 212 nm (before evap.) 24 h,"[1]; ST11: Methanol, solution, RT",93.5%
same,HPLC (%) at 212 nm (after evap.),"[1]; ST12: Methanol solution RT 24 h, evaporated at 60° C. 24 h",90.5%
same,XRPD (after evap.),"[1]; ST12: Methanol solution RT, evaporated at 60° C.",Am.
same,HPLC (%) at 212 nm (after evap.),"[1]; ST13: Methanol solution 60° C. 24 h, evaporated at 30° C. 24 h",no peak~
same,XRPD (after evap.),"[1]; ST13: Methanol solution 60° C., evaporated at 30° C.",Am.
same,HPLC (%) at 212 nm (before evap.) 4 h,[1]; [6],94.8%
same,HPLC (%) at 212 nm (before evap.) 24 h,[1]; [6],90.3%
same,HPLC (%) at 212 nm (after evap.),"[1]; ST14: Methanol solution 60° C. 24 h, evaporated at 60° C. 24 h",92.5%
same,XRPD (after evap.),"[1]; ST14: Methanol solution 60° C., evaporated at 60° C.",Am.
same,HPLC (%) at 212 nm (after evap.),"[1]; ST15: n-Heptane slurry RT 24 h, evaporated at 30° C. 24 h",no peak~
same,HPLC (%) at 212 nm (before evap.) 4 h,"[1]; ST15: n-Heptane, slurry, RT",89.9%
same,HPLC (%) at 212 nm (before evap.) 24 h,"[1]; ST15: n-Heptane, slurry, RT",100.0%
same,HPLC (%) at 212 nm (after evap.),"[1]; ST16: n-Heptane slurry RT 24 h, evaporated at 60° C. 24 h, listed as NaCDC Form B",84.5%
same,HPLC (%) at 212 nm (after evap.),"[1]; ST16: n-Heptane slurry RT 24 h, evaporated at 60° C. 24 h, listed as starting material",around 84.5%
same,HPLC (%) at 212 nm (after evap.),"[1]; ST17: n-Heptane slurry 60° C. 24 h, evaporated at 30° C. 24 h",93.6%
same,HPLC (%) at 212 nm (before evap.) 4 h,[1]; [7],91.5%
same,HPLC (%) at 212 nm (before evap.) 24 h,[1]; [7],91.4%
same,HPLC (%) at 212 nm (after evap.),"[1]; ST18: n-Heptane slurry 60° C. 24 h, evaporated at 60° C. 24 h",90.4%
same,HPLC (%) at 212 nm (after evap.),"[1]; ST19: MEK slurry RT 24 h, evaporated at 30° C. 24 h",74.1%
same,HPLC (%) at 212 nm (before evap.) 4 h,"[1]; ST19: MEK, slurry, RT",100.0%
same,HPLC (%) at 212 nm (before evap.) 24 h,"[1]; ST19: MEK, slurry, RT",97.7%
same,HPLC (%) at 212 nm (after evap.),"[1]; ST20: MEK slurry RT 24 h, evaporated at 60° C. 24 h",86.1%
same,HPLC (%) at 212 nm (after evap.),"[1]; ST21: MEK slurry 60° C. 24 h, evaporated at 30° C. 24 h",55.9%
same,HPLC (%) at 212 nm (before evap.) 4 h,"[1]; ST21: MEK, slurry, 60° C.",65.2%
same,HPLC (%) at 212 nm (before evap.) 24 h,"[1]; ST21: MEK, slurry, 60° C.",94.5%
same,HPLC (%) at 212 nm (after evap.),"[1]; ST22: MEK slurry 60° C. 24 h, evaporated at 60° C. 24 h",86.6%
same,effect of exposure to moist air (XRPD),[2]; 15-20 hours at 95% humidity,eventual amorphization
same,loss of crystallinity on moist air exposure compared with Form A,[2]; 95% humidity,markedly slower
same,solid form after compression (XRPD),[3]; 2 tons for 2 minutes,no change in solid form
same,IDR (intrinsic dissolution rate),"[3]; USP phosphate buffer pH 7.4, 37° C., 100 rpm, disk 0.5024 cm^2",0.9218 mg · min^−1 · cm^−2
same,HPLC purity (%) at 212 nm,"[4]; EV01, Methanol (MeOH) 100.80 mg/mL, solids after 4 days at 25-30° C. and atm. pres.",91.70%
same,HPLC purity (%) at 212 nm,"[4]; EV02, Water (H2O) 204.39 mg/mL, solids after 5 days at 25-30° C. and atm. pres.",93.71%
same,HPLC purity (%) at 212 nm,"[4]; EV03, 2,2,2-Trifluoroethanol (TFE) 50.88 mg/mL, solids after 7 days at 25-30° C. and atm. pres.",88.27%
same,HPLC purity (%) at 212 nm,"[4]; EV04, MeOH:EtOAc (1:1 v/v) 20.49 mg/mL, solids after 4 days at 25-30° C. and atm. pres.",86.46%
same,HPLC purity (%) at 212 nm,"[4]; EV05, MeOH:Acetone (1:1 v/v) 20.19 mg/mL, solids after 4 days at 25-30° C. and atm. pres.",90.22%
same,HPLC purity (%) at 212 nm,"[4]; EV06, Water (H2O) 204.39 mg/mL, solids after several hours (overnight) at 50° C. and atm. pres.",93.24%
same,HPLC purity (%) at 212 nm,[4]; [8],91.69%
same,XRPD,[4]; [8],"S4 + SM, P.O."
same,HPLC purity (%) at 212 nm,"[4]; EV08, MeOH:EtOAc (1:1 v/v) 20.49 mg/mL, solids after several hours (overnight) at 50° C. and atm. pres.",71.43%
same,HPLC purity (%) at 212 nm,"[4]; EV09, MeOH:Acetone (1:1 v/v) 20.19 mg/mL, solids after 4 days at 50° C. and atm. pres.",87.00%
same,hygroscopicity by DVS,[5],slightly hygroscopic
same,weight change in the first sorption cycle (DVS),[5]; 40% RH to 80% RH,0.8%
